According to publication PMC9268448, “Synthesis of 4,5-Dihydro-1H-[1,2]dithiolo[3,4-c]quinoline-1-thione Derivatives and Their Application as Protein Kinase Inhibitors” (Molecules, 2022):

Tests used:
ALK = ALK (Homo sapiens, UniProt Q9UM73); test: Kinase inhibition ELISA, ALK; type: biochemical; conditions: 10 μM test compound, 150 μM ATP
Protocol: (§1) Study of inhibitory activity. The kinase activity was determined by enzyme-linked immunosorbent assay (ELISA) in polypropylene plates (Costar, 3363) in reaction buffer (20 mM HEPES, pH 7.5, 15 mM MgCl2, 2 mM DTT, 0.2 mM Na3VO4, 0.005% Triton X-100) for 60 min at 30 °C with vigorous stirring. The final concentration of the reaction components: 0.05 μg mL^–1 of the corresponding kinase, 5 nM Histon H3 biotinylated substrate (1–21) (Anaspec, 61702), 150 μM ATP (Sigma, A6419), 10 μM test compound, 5% DMSO. The enzymatic reaction was stopped with a buffer containing 20 mM HEPES (Sigma, H4034), pH 7.5, and 150 mM EDTA (Sigma, E5513). Further, to detect the phosphorylated substrate, the reaction mixture was transferred to pre-prepared plates (Nunc, 468667) coated with neutravidin (1 ng per well; Pierce, 31000) and treated with bovine serum albumin (BSA) to block non-specific binding sites. Incubation was carried out for 1 h at room temperature. After washing the plates three times with phosphate buffer saline (PBS, pH 7.4) with Tween-20, they were incubated sequentially with anti-phospho-Histon H3 antibodies (0.3 ng μL^–1; Millipore, 04-746) and with specific antibodies conjugated with an enzyme-label (peroxidase) Anti-rabbit IgG, HRP-linked Antibody (titer 1/5000; Cell Signaling, 7074). After completion of each incubation step (60 min at room temperature (~20 °C) and continuous stirring), the plates were washed three times from unbound antibody molecules with a PBS solution with Tween-20 and 100 μL of substrate (3.3′,5.5′-tetramethylbenzidine (TMB) dihydrochloride, Sigma, T8768) prepared according to the manufacturer’s instructions. Before measuring the optical density, the reaction was stopped using 0.5 M Н2SO4. The optical density of the solution was determined at λ = 450 nm using a tablet spectrophotometer (TECAN Safire). The data obtained were processed and imported into the HTSCalc program.

JAK2 = JAK2 (Homo sapiens, UniProt O60674); test: Kinase inhibition ELISA, JAK2; type: biochemical; conditions: 10 μM test compound, 150 μM ATP
Protocol: as §1

NPM1-ALK = biological target: T1, NPM1-ALK (Homo sapiens, UniProt Q9UM73); test: Kinase inhibition ELISA, NPM1-ALK; type: biochemical; conditions: for inhibition at 10 µM: 10 μM test compound, 150 μM ATP; for IC50: ten concentration points
T1 construct: NPM1 (nucleophosmin, P06748) fusion partner
T1 sequence (Q9UM73 whole entry, looked up, the tested form may be a part): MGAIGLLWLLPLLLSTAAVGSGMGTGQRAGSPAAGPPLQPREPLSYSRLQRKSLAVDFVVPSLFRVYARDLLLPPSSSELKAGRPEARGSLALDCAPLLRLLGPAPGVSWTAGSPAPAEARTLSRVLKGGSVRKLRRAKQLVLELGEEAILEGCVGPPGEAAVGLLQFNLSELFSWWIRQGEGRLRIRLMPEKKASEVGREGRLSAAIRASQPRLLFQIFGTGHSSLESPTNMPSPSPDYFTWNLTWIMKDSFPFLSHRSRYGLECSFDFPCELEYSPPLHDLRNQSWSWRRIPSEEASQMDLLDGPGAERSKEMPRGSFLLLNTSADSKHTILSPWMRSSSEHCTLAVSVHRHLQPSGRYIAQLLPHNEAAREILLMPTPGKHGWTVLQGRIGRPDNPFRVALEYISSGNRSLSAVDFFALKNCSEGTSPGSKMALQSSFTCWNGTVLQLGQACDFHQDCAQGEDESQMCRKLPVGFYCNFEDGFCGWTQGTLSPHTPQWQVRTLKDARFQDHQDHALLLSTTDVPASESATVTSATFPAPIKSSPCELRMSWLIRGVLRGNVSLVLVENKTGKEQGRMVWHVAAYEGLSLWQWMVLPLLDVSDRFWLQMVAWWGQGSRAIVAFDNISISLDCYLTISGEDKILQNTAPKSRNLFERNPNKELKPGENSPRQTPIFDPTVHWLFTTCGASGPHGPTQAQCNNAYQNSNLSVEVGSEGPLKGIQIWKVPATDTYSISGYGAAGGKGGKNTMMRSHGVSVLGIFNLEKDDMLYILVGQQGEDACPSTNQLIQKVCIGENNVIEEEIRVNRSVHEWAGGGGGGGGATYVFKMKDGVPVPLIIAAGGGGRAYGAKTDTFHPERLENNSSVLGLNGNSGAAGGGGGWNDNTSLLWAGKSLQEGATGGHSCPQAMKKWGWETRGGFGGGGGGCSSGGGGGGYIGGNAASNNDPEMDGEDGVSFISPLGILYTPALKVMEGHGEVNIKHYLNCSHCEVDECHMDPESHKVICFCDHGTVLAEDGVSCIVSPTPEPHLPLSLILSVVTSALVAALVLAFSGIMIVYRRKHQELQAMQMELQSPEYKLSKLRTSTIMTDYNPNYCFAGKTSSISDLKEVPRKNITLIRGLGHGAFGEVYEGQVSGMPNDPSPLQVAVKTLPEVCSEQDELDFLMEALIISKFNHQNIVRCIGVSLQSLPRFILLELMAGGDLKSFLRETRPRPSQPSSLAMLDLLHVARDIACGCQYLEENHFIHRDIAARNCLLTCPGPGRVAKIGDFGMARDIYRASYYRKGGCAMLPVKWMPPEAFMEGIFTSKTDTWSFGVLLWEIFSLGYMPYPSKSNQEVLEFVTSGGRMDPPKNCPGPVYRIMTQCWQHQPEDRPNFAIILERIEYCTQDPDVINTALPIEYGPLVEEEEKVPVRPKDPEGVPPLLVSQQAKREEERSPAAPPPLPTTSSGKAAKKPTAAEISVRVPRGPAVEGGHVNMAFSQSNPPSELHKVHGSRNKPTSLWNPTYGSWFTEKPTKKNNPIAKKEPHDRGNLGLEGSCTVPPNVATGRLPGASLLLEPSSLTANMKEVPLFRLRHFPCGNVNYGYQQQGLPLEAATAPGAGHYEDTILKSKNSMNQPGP
Protocol: (§2) Study of inhibitory activity. […] The enzymatic reaction was stopped with a buffer containing 20 mM HEPES (Sigma, H4034), pH 7.5, and 150 mM EDTA (Sigma, E5513). […] Incubation was carried out for 1 h at room temperature. […] After completion of each incubation step (60 min at room temperature (~20 °C) and continuous stirring), the plates were washed three times from unbound antibody molecules with a PBS solution with Tween-20 and 100 μL of substrate (3.3′,5.5′-tetramethylbenzidine (TMB) dihydrochloride, Sigma, T8768) prepared according to the manufacturer’s instructions. Before measuring the optical density, the reaction was stopped using 0.5 M Н2SO4. The optical density of the solution was determined at λ = 450 nm using a tablet spectrophotometer (TECAN Safire). The data obtained were processed and imported into the HTSCalc program.
(§3) The data were analyzed using GraphPad Prism software (v. 3.1).

JAK3 = biological target: T2, JAK3 (Homo sapiens, UniProt P52333); test: Kinase inhibition ELISA, JAK3; type: biochemical; conditions: for inhibition at 10 µM: 10 μM test compound, 150 μM ATP; for IC50: ten concentration points
T2 sequence (P52333 1-1124): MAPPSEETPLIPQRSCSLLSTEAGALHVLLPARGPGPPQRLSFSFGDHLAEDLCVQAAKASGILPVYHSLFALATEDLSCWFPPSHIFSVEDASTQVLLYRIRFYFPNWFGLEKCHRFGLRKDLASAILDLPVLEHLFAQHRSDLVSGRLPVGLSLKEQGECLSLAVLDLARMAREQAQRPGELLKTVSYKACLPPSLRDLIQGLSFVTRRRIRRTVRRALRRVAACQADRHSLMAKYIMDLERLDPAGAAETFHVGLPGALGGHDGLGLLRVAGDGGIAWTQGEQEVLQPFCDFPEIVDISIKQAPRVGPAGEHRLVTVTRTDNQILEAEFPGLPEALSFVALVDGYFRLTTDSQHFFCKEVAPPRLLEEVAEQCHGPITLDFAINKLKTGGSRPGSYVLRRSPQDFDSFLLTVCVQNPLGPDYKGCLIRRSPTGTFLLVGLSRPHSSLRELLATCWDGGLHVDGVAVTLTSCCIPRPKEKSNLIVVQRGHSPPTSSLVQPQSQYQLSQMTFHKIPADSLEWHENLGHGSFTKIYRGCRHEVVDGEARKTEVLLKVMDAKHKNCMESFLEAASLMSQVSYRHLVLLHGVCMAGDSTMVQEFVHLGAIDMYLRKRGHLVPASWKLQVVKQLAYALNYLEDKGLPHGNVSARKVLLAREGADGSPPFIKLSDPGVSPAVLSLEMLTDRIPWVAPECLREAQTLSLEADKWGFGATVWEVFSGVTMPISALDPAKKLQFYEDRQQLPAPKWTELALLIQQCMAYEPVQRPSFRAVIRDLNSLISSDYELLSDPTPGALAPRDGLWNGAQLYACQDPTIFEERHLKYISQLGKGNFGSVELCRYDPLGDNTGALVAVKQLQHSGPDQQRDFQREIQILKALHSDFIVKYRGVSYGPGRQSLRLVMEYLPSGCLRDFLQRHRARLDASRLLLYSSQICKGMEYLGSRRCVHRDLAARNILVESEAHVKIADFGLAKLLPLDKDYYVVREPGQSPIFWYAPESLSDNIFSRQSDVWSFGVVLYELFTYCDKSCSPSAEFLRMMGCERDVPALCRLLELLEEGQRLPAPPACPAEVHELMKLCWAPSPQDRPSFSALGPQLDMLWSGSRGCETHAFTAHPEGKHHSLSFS
Protocol: as §1
(§4) For compounds 2a–c,q, the IC50 value (μmol L^–1) was calculated from ten concentration points (in triplicate dilution) obtained twice. The data were analyzed using GraphPad Prism software (v. 3.1).

EGFR[L858R][T790] = EGFR[L858R][T790] (Homo sapiens, UniProt P00533, L858R/T790M); test: Kinase inhibition ELISA, EGFR[L858R][T790]; type: biochemical; conditions: 10 μM test compound, 150 μM ATP
Chain of EGFR[L858R][T790] (P00533 669-1210 T790M/L858R limits assumed): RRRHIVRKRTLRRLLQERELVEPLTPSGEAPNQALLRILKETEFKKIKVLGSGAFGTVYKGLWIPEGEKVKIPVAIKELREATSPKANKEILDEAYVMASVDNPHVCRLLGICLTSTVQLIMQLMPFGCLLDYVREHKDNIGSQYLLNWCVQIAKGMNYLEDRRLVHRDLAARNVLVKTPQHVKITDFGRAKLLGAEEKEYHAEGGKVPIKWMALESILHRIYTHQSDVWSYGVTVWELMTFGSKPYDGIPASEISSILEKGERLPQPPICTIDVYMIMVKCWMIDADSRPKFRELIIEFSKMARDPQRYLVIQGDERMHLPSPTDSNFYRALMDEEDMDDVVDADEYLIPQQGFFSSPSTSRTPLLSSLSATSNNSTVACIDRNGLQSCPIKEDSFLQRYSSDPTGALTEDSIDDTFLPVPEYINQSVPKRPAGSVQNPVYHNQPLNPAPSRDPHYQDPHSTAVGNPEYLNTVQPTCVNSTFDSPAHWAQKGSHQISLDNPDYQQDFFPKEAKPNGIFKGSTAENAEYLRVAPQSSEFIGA
Protocol: as §1

cRAF[Y340D][Y341D] = cRAF[Y340D][Y341D] (Homo sapiens, UniProt P04049, Y340D/Y341D); test: Kinase inhibition ELISA, cRAF[Y340D][Y341D]; type: biochemical; conditions: for inhibition at 10 µM: 10 μM test compound, 150 μM ATP; for IC50: ten concentration points
Chain of cRAF[Y340D][Y341D] (P04049 whole entry Y340D/Y341D): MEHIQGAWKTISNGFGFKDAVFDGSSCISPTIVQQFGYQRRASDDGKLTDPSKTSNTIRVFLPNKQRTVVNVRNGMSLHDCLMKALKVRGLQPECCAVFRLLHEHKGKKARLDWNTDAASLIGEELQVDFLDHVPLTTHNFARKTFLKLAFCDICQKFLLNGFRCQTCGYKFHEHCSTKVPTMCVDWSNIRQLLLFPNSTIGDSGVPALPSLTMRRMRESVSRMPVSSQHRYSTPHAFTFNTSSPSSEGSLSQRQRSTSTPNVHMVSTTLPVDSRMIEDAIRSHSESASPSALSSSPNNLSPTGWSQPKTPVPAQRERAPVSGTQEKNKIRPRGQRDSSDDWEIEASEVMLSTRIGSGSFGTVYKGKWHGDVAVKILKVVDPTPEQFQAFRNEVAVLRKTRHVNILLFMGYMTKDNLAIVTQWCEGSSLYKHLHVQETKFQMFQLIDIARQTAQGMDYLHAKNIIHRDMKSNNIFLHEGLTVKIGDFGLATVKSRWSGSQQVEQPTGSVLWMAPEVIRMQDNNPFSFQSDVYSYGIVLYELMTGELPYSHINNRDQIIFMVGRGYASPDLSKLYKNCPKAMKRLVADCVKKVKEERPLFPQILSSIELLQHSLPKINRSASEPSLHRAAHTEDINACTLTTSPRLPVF
Protocol: as §2, §3

[1] = system: protein kinases NPM1-ALK, ALK, EGFR[L858R][T790], cRAF[Y340D][Y341D], JAK2, and JAK3; test: Kinase inhibition ELISA, summary over the studied protein kinases; type: biochemical, human; conditions: primary screening, 10 μM test compound
Protocol: Study of inhibitory activity. The kinase activity was determined by enzyme-linked immunosorbent assay (ELISA) in polypropylene plates (Costar, 3363) in reaction buffer (20 mM HEPES, pH 7.5, 15 mM MgCl2, 2 mM DTT, 0.2 mM Na3VO4, 0.005% Triton X-100) for 60 min at 30 °C with vigorous stirring. The final concentration of the reaction components: 0.05 μg mL^–1 of the corresponding kinase, 5 nM Histon H3 biotinylated substrate (1–21) (Anaspec, 61702), 150 μM ATP (Sigma, A6419), 10 μM test compound, 5% DMSO. The enzymatic reaction was stopped with a buffer containing 20 mM HEPES (Sigma, H4034), pH 7.5, and 150 mM EDTA (Sigma, E5513). Further, to detect the phosphorylated substrate, the reaction mixture was transferred to pre-prepared plates (Nunc, 468667) coated with neutravidin (1 ng per well; Pierce, 31000) and treated with bovine serum albumin (BSA) to block non-specific binding sites. Incubation was carried out for 1 h at room temperature. […] The optical density of the solution was determined at λ = 450 nm using a tablet spectrophotometer (TECAN Safire). […]
as §4

Chain of ALK (Q9UM73 19-1620): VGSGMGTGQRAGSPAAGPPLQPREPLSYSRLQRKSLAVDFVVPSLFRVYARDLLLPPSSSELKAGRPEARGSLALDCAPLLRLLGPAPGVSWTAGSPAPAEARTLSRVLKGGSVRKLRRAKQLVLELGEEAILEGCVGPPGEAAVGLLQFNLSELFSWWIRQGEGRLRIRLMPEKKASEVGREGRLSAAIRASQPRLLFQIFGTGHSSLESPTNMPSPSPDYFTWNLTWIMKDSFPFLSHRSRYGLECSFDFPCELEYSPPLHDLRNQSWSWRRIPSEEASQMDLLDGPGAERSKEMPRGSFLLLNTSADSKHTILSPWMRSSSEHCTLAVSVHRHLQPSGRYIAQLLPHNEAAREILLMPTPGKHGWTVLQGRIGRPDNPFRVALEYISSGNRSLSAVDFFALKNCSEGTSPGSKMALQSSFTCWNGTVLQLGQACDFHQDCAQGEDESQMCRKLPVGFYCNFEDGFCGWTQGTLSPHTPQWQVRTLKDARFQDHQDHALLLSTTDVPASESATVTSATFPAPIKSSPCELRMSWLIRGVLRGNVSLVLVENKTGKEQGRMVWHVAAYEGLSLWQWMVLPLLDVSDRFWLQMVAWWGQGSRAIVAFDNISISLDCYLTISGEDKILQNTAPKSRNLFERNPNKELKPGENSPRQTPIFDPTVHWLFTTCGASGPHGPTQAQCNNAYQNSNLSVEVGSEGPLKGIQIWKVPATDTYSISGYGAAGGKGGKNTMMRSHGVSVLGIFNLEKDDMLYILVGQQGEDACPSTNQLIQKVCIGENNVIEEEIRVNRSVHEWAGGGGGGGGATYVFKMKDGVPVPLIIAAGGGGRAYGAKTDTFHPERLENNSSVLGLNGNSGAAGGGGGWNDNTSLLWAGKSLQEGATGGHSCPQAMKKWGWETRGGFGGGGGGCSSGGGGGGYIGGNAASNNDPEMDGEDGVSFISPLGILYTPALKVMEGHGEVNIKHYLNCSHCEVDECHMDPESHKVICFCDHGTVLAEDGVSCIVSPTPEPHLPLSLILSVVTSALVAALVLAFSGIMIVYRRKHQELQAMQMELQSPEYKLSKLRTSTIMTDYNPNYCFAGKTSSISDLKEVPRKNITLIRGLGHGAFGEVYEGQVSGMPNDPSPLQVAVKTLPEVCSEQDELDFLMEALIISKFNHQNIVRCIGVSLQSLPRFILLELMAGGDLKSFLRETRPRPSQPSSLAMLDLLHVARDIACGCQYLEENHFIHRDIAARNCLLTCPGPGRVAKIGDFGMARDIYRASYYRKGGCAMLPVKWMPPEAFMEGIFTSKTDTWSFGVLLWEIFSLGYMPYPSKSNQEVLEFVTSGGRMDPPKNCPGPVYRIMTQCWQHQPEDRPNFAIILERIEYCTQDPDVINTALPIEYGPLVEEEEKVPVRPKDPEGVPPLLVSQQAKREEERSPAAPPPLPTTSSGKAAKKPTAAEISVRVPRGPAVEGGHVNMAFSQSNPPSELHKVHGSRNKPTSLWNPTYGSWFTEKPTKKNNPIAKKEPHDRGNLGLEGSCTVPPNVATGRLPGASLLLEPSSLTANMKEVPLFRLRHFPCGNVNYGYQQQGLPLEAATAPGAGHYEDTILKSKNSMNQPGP

inhibition at 10 µM (ALK) [%]	inhibition at 10 µM (JAK2) [%]	inhibition at 10 µM (NPM1-ALK) [%]	inhibition at 10 µM (JAK3) [%]	inhibition at 10 µM (EGFR[L858R][T790]) [%]	inhibition at 10 µM (cRAF[Y340D][Y341D]) [%]	melting point [°C]	IC50 (JAK3) [µM]	IC50 (cRAF[Y340D][Y341D]) [µM]	IC50 (NPM1-ALK) [µM]	inhibitory activity against the studied protein kinases (in words) [1]	Compound
75	53	67	86	24	81	218 to 219					COc1ccc2c(c1)N(C(=O)c1sc3ccccc3c1Cl)C(C)(C)c1ssc(=S)c1-2 [2l, 5-[(3-Chloro-1-benzothien-2-yl)carbonyl]-7-methoxy-4,4-dimethyl-4,5-dihydro-1H-[1,2]dithiolo[3,4-c]quinoline-1-thione]
51	9	36	99	71	92	195 to 196	0.46	5.34			COc1cccc(N=c2ssc3c2-c2cccc4c2N(C(=O)C4=O)C3(C)C)c1 [2q, 10-[(3-Methoxyphenyl)imino]-7,7-dimethyl-7,10-dihydro[1,2]dithiolo[3,4-c]pyrrolo[3,2,1-ij]quinoline-4,5-dione]
18	3	27	26	-2	41	205 to 206				very low activity	COc1ccc2c(c1)-c1c(ssc1=S)C(C)(C)N2C(=O)CN1C(=O)C2CCCCC2C1=O (stereo not shown) [2k, 2-[2-(8-Methoxy-4,4-dimethyl-1-thioxo-1,4-dihydro-5H-[1,2]dithiolo[3,4-c]quinolin-5-yl)-2-oxoethyl]hexahydro-1H-isoindole-1,3(2H)-dione]
-4	1	6	23	10	35	234 to 235				very low activity	CC1(C)c2ssc(=S)c2-c2cc3c(cc2N1C(=O)c1ccccc1F)OCCO3 [2m, 5-(2-Fluorobenzoyl)-4,4-dimethyl-4,5,8,9-tetrahydro-1H-[1,4]dioxino[2,3-g][1,2]dithiolo[3,4-c]quinoline-1-thione]

More lines, now with the values behind:

Compound	inhibition at 10 µM (ALK) [%]	inhibition at 10 µM (JAK2) [%]	inhibition at 10 µM (NPM1-ALK) [%]	inhibition at 10 µM (JAK3) [%]	inhibition at 10 µM (EGFR[L858R][T790]) [%]	inhibition at 10 µM (cRAF[Y340D][Y341D]) [%]	melting point [°C]	IC50 (JAK3) [µM]	IC50 (cRAF[Y340D][Y341D]) [µM]	IC50 (NPM1-ALK) [µM]	inhibitory activity against the studied protein kinases (in words) [1]
CN1c2ccc(C(=S)N3CCOCC3)cc2-c2c(ssc2=S)C1(C)C [2a, 4,4,5-Trimethyl-8-(morpholin-4-ylcarbonothioyl)-4,5-dihydro-1H-[1,2]dithiolo[3,4-c]quinoline-1-thione]	84	81	87	96	82	93	106 to 107	0.36	6.57	0.54	
CC1(C)Nc2cc3c(cc2-c2c1ssc2=S)OCCO3 [2h, 4,4-dimethyl-4,5,8,9-tetrahydro-1H-[1,4]dioxino[2,3-g][1,2]dithiolo[3,4-c]quinoline-1-thione]	49	10	42	36	27	44	238 to 239				
COc1ccc2c(c1)-c1c(ssc1=S)C(C)(C)N2C(=O)c1cccs1 [2i, 8-Methoxy-4,4-dimethyl-5-(2-thienylcarbonyl)-4,5-dihydro-1H-[1,2]dithiolo[3,4-c]quinoline-1-thione]	81	64	77	89	24	76	158 to 159				
COc1ccc2c(c1)-c1c(ssc1=S)C(C)(C)N2C(=O)CN1C(=O)CCC1=O [2j, 1-[2-(8-Methoxy-4,4-dimethyl-1-thioxo-1,4-dihydro-5H-[1,2]dithiolo[3,4-c]quinolin-5-yl)-2-oxoethyl]pyrrolidine-2,5-dione]	7	11	56	39	9	5	201 to 202				
CC1(C)c2ssc(=S)c2-c2cc(C(=S)N3CCCCC3)ccc2N1Cc1ccccc1 [2d, 5-Benzyl-4,4-dimethyl-8-(piperidin-1-ylcarbonothioyl)-4,5-dihydro-1H-[1,2]dithiolo[3,4-c]quinoline-1-thione]	39	33	41	69	12	61					
CC1(C)c2ssc(=S)c2-c2cc(C(=S)N3CCOCC3)ccc2N1Cc1ccccc1 [2c, 5-Benzyl-4,4-dimethyl-8-(morpholin-4-ylcarbonothioyl)-4,5-dihydro-1H-[1,2]dithiolo[3,4-c]quinoline-1-thione]	77	76	75	95	88	93		0.41	0.78		
CN1c2ccc(C(=S)N3CCN(c4ccccc4)CC3)cc2-c2c(ssc2=S)C1(C)C [2b, 4,4,5-Trimethyl-8-[(4-phenylpiperazin-1-yl)carbonothioyl]-4,5-dihydro-1H-[1,2]dithiolo[3,4-c]quinoline-1-thione]	86	83	90	95	84	92		0.38		0.25	
